Patent publication US20230146455A1, “TREATMENT OF INFLAMMATORY DISEASES WITH PEPTIDES AND PHARMACEUTICAL COMPOSITIONS” (Yuyu Pharma, Inc., priority 2020, published 2023)
Values joined by “and” are separate entries in the source; they are usually repeats but may differ in a detail not shown here. Equal entries are not always repeated. Where a SMILES comes first, the peptide text is derived from it. [ ]: non-standard residue; d: D form. Hyp = O=C(O)[C@@H]1C[C@@H](O)CN1

System: IL-2
Test: Example 9 Luminex, LPS hPBMCs: IL-2
Format: cell-based, human
Experimental: Treatment Human PBMCs were pretreated with YY-101, YDE-011 and YDE-043 or reference compound; Xiidra® at various concentration (ranging from 1 nM to 100 uM) for 2 h before stimulation. An equal volume of 0.5% DMSO was used as a vehicle control. Then, the cells were treated with LPS at 5 ug/ml. The supernatants from treated cells were harvested at 24 h and placed in a 96 well for Luminex cytokine & chemokine profiling using a Luminex 200 multiplex assay (Luminex; R&D system, USA).
The main study arm with triplicate wells per group in a 24-well plate: • 1. Blank • 2. PBMC: 0.5% DMSO • 3. PBMC+LPS (5 ug/ml) • 4. PBMC+YY-101 100 uM • 5. PBMC+YY-101 10 uM • 6. PBMC+YY-101 1 uM • 7. PBMC+YY-101 0.1 uM • 8. PBMC+YY-101 0.01 uM • 9. PBMC+LPS (5 ug/ml)+Xiidra®100 uM • 10. PBMC+LPS (5 ug/ml)+Xiidra® 10 uM • 11. PBMC+LPS (5 ug/ml)+Xiidra® 1 uM • 12. PBMC+LPS (5 ug/ml)+Xiidra®0.1 uM • 13. PBMC+LPS (5 ug/ml)+Xiidra®0.01 uM • 14. PBMC+LPS (5 ug/ml)+Xiidra®0.001 uM • 15. PBMC+LPS (5 ug/ml)+YY-101 100 uM • 16. PBMC+LPS (5 ug/ml)+YY-101 10 uM • 17. PBMC+LPS (5 ug/ml)+YY-101 1 uM • 18. PBMC+LPS (5 ug/ml)+YY-101 0.1 uM • 19. PBMC+LPS (5 ug/ml)+YY-101 0.01 uM • 20. PBMC+LPS (5 ug/ml)+YY-101 0.001 uM • 21. PBMC+LPS (5 ug/ml)+YDE-011 100 uM • 22. PBMC+LPS (5 ug/ml)+YDE-011 10 uM • 23. PBMC+LPS (5 ug/ml)+YDE-011 1 uM • 24. PBMC+LPS (5 ug/ml)+YDE-011 0.1 uM • 25. PBMC+LPS (5 ug/ml)+YDE-011 0.01 uM • 26. PBMC+LPS (5 ug/ml)+YDE-011 0.001 uM • 27. PBMC+LPS (5 ug/ml)+YDE-043 100 uM • 28. PBMC+LPS (5 ug/ml)+YDE-043 10 uM • 29. PBMC+LPS (5 ug/ml)+YDE-043 1 uM • 30. PBMC+LPS (5 ug/ml)+YDE-043 0.1 uM • 31. PBMC+LPS (5 ug/ml)+YDE-043 0.01 uM • 32. PBMC+LPS (5 ug/ml)+YDE-043 0.001 uM
Multiplex assay was used to measure 30 cytokines and chemokines. The 1:2, 1:10 and 1:200 diluted cell supernatant and serial dilution of the standard were dispensed into a 96 well plate at 50 ul/well. Then, the pre-mixed cocktail of antibody-coated magnetic beads was dispensed at 50 ul/well and incubated at room temperature for 2 h in a horizontal orbital microplate shaker at 800±500 rpm. The beads were washed using a magnetic device to prevent loss. The biotin-antibody was dispensed in 50 ul of each well and incubated at room temperature for 1 h in a shaker at 800±500 rpm. After washing, streptavidin-PE was added at 50 ul/well and incubated at room temperature for 30 min in a shaker under the same conditions. Finally, after washing, wash buffer (100 ul/well) was added to the plate and incubated in a shaker for 2 min. The Luminex™ 200 setting were set according to the manufacturer's protocol. The data was calculated with a standard five-parameter logistic nonlinear regression analysis of the data (xPonent software 4.2, USA). The levels of cytokine/chemokine are normalized to the live cell counts (1×10^5 cells/mL) and presented as concentrations per mL (pg/mL or ng/mL).

[1] = PBMC + LPS(5 ug/ml) + test article 0.001 uM, Mean
[2] = PBMC + LPS(5 ug/ml) + test article 0.001 uM, single replicates
[3] = PBMC + LPS(5 ug/ml) + test article 0.01 uM, Mean
[4] = PBMC + LPS(5 ug/ml) + test article 0.01 uM, single replicates
[5] = PBMC + LPS(5 ug/ml) + test article 0.1 uM, Mean
[6] = PBMC + LPS(5 ug/ml) + test article 0.1 uM, single replicates
[7] = PBMC + LPS(5 ug/ml) + test article 1 uM, Mean
[8] = PBMC + LPS(5 ug/ml) + test article 1 uM, single replicates
[9] = PBMC + LPS(5 ug/ml) + test article 10 uM, Mean
[10] = PBMC + LPS(5 ug/ml) + test article 10 uM, single replicates
[11] = PBMC + LPS(5 ug/ml) + test article 100 uM, Mean
[12] = PBMC + LPS(5 ug/ml) + test article 100 uM, single replicates

Row | SMILES | IL-2 conc/live cell [1] | MFI, Bead name: IL-2 [1] | IL-2 conc/live cell [2] | MFI, Bead name: IL-2 [2] | IL-2 conc/live cell [3] | MFI, Bead name: IL-2 [3] | IL-2 conc/live cell [4] | MFI, Bead name: IL-2 [4] | IL-2 conc/live cell [5] | MFI, Bead name: IL-2 [5] | IL-2 conc/live cell [6] | MFI, Bead name: IL-2 [6] | IL-2 conc/live cell [7] | MFI, Bead name: IL-2 [7] | IL-2 conc/live cell [8] | MFI, Bead name: IL-2 [8] | IL-2 conc/live cell [9] | MFI, Bead name: IL-2 [9] | IL-2 conc/live cell [10] | MFI, Bead name: IL-2 [10] | also measured
1 | CC(C)C[C@H](NC(=O)CNC(=O)[C@H](CC(C)C)NC(=O)[C@H](CCC(N)=O)NC(=O)CNC(=O)[C@@H]1C[C@@H](O)CN1)C(=O)N[C@@H](C)C(=O)NCC(=O)N1CCC[C@H]1C(=O)N[C@@H](CCCCN)C(=O)O [YDE-011] (H-[Hyp]GQLGLAGPK-OH) | 0.0 pg/10^5 | 4.0 | 0.0 pg/10^5 | 4.0 | 0.0 pg/10^5 | 5.0 | 0.0 pg/10^5 | 5.0 | 0.0 pg/10^5 | 6.7 | 0.0 pg/10^5 | 7.0 and 8.0 and 5.0 | 0.0 pg/10^5 | 5.3 | 0.0 pg/10^5 | 6.0 (2×) and 4.0 | 0.0 pg/10^5 | 5.3 | 0.0 pg/10^5 | 6.0 and 5.0 (2×) | IL-2 conc/live cell [11]: 0.0 pg/10^5; MFI, Bead name: IL-2 [11]: 4.0; IL-2 conc/live cell [12]: 0.0 pg/10^5; MFI, Bead name: IL-2 [12]: 4.0 and 2.0 and 6.0
2 | CC(C)C[C@H](NC(=O)[C@H](CCC(N)=O)NC(=O)CNC(=O)[C@@H]1C[C@@H](O)CN1)C(=O)NCC(=O)O [YDE-043] (H-[Hyp]GQLG-OH; N-terminus and C-terminus assumed) | 0.0 pg/10^5 | 6.3 | 0.0 pg/10^5 | 3.0 and 8.0 (2×) | 0.0 pg/10^5 | 4.7 | 0.0 pg/10^5 | 6.0 and 4.0 (2×) | 0.0 pg/10^5 | 5.7 | 0.0 pg/10^5 | 6.0 and 3.0 and 8.0 | 0.0 pg/10^5 | 3.0 | 0.0 pg/10^5 | 3.0 and 2.0 and 4.0 | 0.0 pg/10^5 | 3.3 | 0.0 pg/10^5 | 3.0 and 2.0 and 5.0 | IL-2 conc/live cell [11]: 0.0 pg/10^5; MFI, Bead name: IL-2 [11]: 2.0; IL-2 conc/live cell [12]: 0.0 pg/10^5; MFI, Bead name: IL-2 [12]: 2.0
